{"source": "patent US11065296B2", "about": "“Antimicrobial peptide, its analog and use” (City University of Hong Kong, priority 2018, dated 2021)", "system": "E. coli PQ37", "assay": "SOS induction (chromotest)", "type": "cell-based", "details": "E. coli PQ37, 120 min; Peptide A 3.4 μM, Piscidin 3.77 μM", "description": "Results are expressed as 2^(−Delta Delta C (T)). […] Results are expressed as 2^(−Delta Delta C (T)).\nE. coli PQ37 (Genotype: Sfi A and Lac Z fusion, lac Z) was cultured in lysogeny broth (LB) that contained 57.2 μM of ampicillin overnight (37° C.) and subcultured through 20 dilutions on another day so that OD600 equals to 0.2-0.4. PQ37 was incubated in 0.3 ml AMP (3.4 μM) or Piscidin ([…], 3.77 μM) for 2 hours and then re-suspended in the same volume of Z-buffer (Na2HPO4.7H2O 16.1 g/l, NaH2PO4.2H2O 6.24 g/L, KCl 0.75 g/L, MgSO4.7H2O 0.246 g/L and b-mercaptoethanol 0.3% (v/v)) for carrying out a β-galactosidase assay (β-ga) and alkaline phosphatase assay (ap), respectively. The bacteria were lysed with 0.1 ml of 0.1% SDS and 0.15 ml of chloroform. For the β-ga assay, the reaction was started by adding 0.6 ml of ortho-Nitrophenyl-β-galactoside (ONPG; Catalog number 34055, ThermoFisher Scientific) for color development and then stopped with the addition of 2 ml of 1 M NaCO3 solution. For ap acsay, the reaction was started by adding 0.6 ml of para-Nitrophenylphosphate (PNPP; Catalog number 34045, ThermoFisher Scientific) for color development which was then terminated by the addition of 1 ml of 2 M HCl solution and 1 ml of 2 M Tri-HCl to restore the colour. The absorbance was read at 420 nm against a blank without bacteria. The induction factor (IF) was calculated as the ratio R(x)/R(0) (R(x)=β-g/ap determined for the tested peptide; R(0)=β-g/ap determined for the LB). Furacin (antibiotic) and Piscidin were chosen as the controls. Each experiment was performed in triplicate.", "note": "Peptide text beside a SMILES is read from it."}
{"smiles": "CC[C@H](C)[C@H](N)C(=O)N[C@@H](CCCNC(=N)N)C(=O)N[C@H](C(=O)N[C@H](C(=O)N[C@@H](CC(C)C)C(=O)N[C@@H](CCCNC(=N)N)C(=O)N[C@@H](C)C(=O)N[C@@H](CCC(N)=O)C(=O)NCC(=O)N[C@@H](C)C(=O)N[C@@H](CC(C)C)C(=O)N[C@@H](CCCCN)C(=O)N[C@H](C(=O)O)[C@@H](C)CC)[C@@H](C)CC)[C@@H](C)CC", "note": "[Peptide A, IRIILRAQGALKI] (H-IRIILRAQGALKI-OH; N-terminus and C-terminus assumed)", "values": [{"measurement": "SOS response (induction factor)", "value": "consistent induction of SOS response"}]}
